Results on ten compounds are retold here after PubChem BioAssay (NCI).

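Results reflect a 48-hour exposure of cells in 96-well plates to compound at five concentrations. TGI: total growth inhibition.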

Test systems include OVCAR-8 ovarian; HCT-15 colon; KM12 colon; 786-0 renal; OVCAR-3 ovarian; M14 melanoma; OVCAR-4 ovarian; SK-MEL-2 melanoma; ACHN renal; MALME-3M melanoma; NCI-H226 lung; HOP-92 NSCLC; HL-60(TB) leukemia; CCRF-CEM leukemia; MDA-MB-435; DU-145 prostate; MCF7 breast.
Common to all, as to experiment: inhibition of tumour cell growth, NCI panel, 48 h

In the case of `COc1ccc2c(c1)c(=O)c1ccccc1n2/C=C/C(=O)O`, the TGI in the test on OVCAR-8 ovarian, in the test on HCT-15 colon, with KM12 colon, in the test with 786-0 renal, with OVCAR-3 ovarian and with M14 melanoma was above 100 µM in each case. For the same compound, the TGI in the test with OVCAR-4 ovarian, in the test on SK-MEL-2 melanoma, with ACHN renal, in the test with MALME-3M melanoma, with NCI-H226 lung and in the test with HOP-92 NSCLC was above 100 µM in each case. In addition, the values for the TGI with HL-60(TB) leukemia and in the test with CCRF-CEM leukemia were above 66.6 µM and above 67.8 µM, respectively.

Regarding `Cc1nc2c(n1CCO)C(=O)c1ccccc1C2=O`, the TGI in the test on OVCAR-8 ovarian is above 100 µM; in the test on HCT-15 colon it was above 100 µM; in the test with KM12 colon, above 100 µM; in the test with 786-0 renal, above 100 µM; in the test with OVCAR-3 ovarian, 76.2 µM; in the test on M14 melanoma it was 52.3 µM. The TGI was 99 µM in the test with OVCAR-4 ovarian; 53 µM in the test with SK-MEL-2 melanoma; above 100 µM with ACHN renal; 24.2 µM in the test on MALME-3M melanoma; above 100 µM in the test with NCI-H226 lung; 54.2 µM in the test on HL-60(TB) leukemia. For the same compound, the TGI in the test with CCRF-CEM leukemia is above 100 µM.

Take `COc1ccc(N2C(=O)C3c4[nH]c5ccccc5c4C4CCCCCCCCCCC4C3C2=O)cc1` (stereo not drawn): the TGI is 9.61 µM in the test on OVCAR-8 ovarian; 19.9 µM in the test with HCT-15 colon; above 57.3 µM in the test on KM12 colon; 8.17 µM in the test on 786-0 renal; 26.4 µM in the test with OVCAR-3 ovarian; 27.1 µM in the test on M14 melanoma. Moreover, the TGI was 65.8 µM in the test with OVCAR-4 ovarian; above 100 µM with SK-MEL-2 melanoma; above 60.3 µM with ACHN renal; above 47.2 µM in the test with MALME-3M melanoma; 17.7 µM with NCI-H226 lung; 45.2 µM in the test with HOP-92 NSCLC. Further, the values for the TGI in the test on HL-60(TB) leukemia and in the test on CCRF-CEM leukemia were 68.2 µM and above 43.7 µM, respectively.

For the compound `Cc1ccc(S(=O)(=O)N2CC3OC(C)(C)OC3C2CO)cc1` (stereo not drawn), the TGI in the test with OVCAR-8 ovarian, in the test on HCT-15 colon, with MDA-MB-435, in the test on KM12 colon, with 786-0 renal and in the test with OVCAR-3 ovarian was above 100 µM each time. The TGI in the test with M14 melanoma, with DU-145 prostate, in the test on OVCAR-4 ovarian, in the test with SK-MEL-2 melanoma, with ACHN renal and in the test with MCF7 breast was above 100 µM each time. Moreover, the TGI with MALME-3M melanoma, in the test on NCI-H226 lung, with HOP-92 NSCLC and with CCRF-CEM leukemia was above 100 µM throughout.

Take `CN(C)c1ccc(-c2cc(=O)c3cc4c(cc3[nH]2)OCO4)cc1`: the TGI in the test on OVCAR-8 ovarian, in the test on HCT-15 colon, in the test with 786-0 renal, with OVCAR-3 ovarian, in the test with M14 melanoma and with OVCAR-4 ovarian was above 100 µM in each case. Further, the TGI in the test on SK-MEL-2 melanoma, in the test on ACHN renal, in the test on MALME-3M melanoma, in the test with NCI-H226 lung, in the test with HL-60(TB) leukemia and in the test on CCRF-CEM leukemia was above 100 µM in each case.

On to `CC(=O)c1cccc(NC(=O)/C(=N\NC(C)(C)C)c2c(O)c3ccccc3oc2=O)c1`, for which the TGI in the test with OVCAR-8 ovarian, in the test with HCT-15 colon, with KM12 colon, in the test with 786-0 renal, in the test with OVCAR-3 ovarian and in the test on M14 melanoma was above 100 µM each time. The TGI in the test with OVCAR-4 ovarian, in the test with SK-MEL-2 melanoma, with ACHN renal, with MALME-3M melanoma, in the test on NCI-H226 lung and with HOP-92 NSCLC was above 100 µM each time. In addition, the TGI in the test on HL-60(TB) leukemia and in the test on CCRF-CEM leukemia was above 100 µM throughout.

As for `COc1ccc(N2C(=O)C3c4[nH]c5ccc(OC)cc5c4C4CCC(C(C)(C)C)CC4C3C2=O)cc1` (stereo not drawn), the TGI with OVCAR-8 ovarian was above 100 µM; in the test on HCT-15 colon it was above 100 µM; in the test on KM12 colon, above 100 µM; with 786-0 renal it was 66.1 µM; in the test with OVCAR-3 ovarian, above 100 µM; with M14 melanoma it was above 100 µM. For the same compound, the TGI was 43.6 µM with OVCAR-4 ovarian; 70.4 µM with SK-MEL-2 melanoma; above 100 µM in the test with ACHN renal; 58 µM in the test with MALME-3M melanoma; above 100 µM in the test with NCI-H226 lung; 36.4 µM in the test with HOP-92 NSCLC. For the same compound, the TGI in the test with HL-60(TB) leukemia and in the test with CCRF-CEM leukemia was above 100 µM in each case.

For the compound `COc1cccc2c1CCc1ccccc1CC2=O`, the TGI in the test on OVCAR-8 ovarian, in the test on HCT-15 colon, in the test with KM12 colon, in the test with 786-0 renal, in the test on OVCAR-3 ovarian and in the test on M14 melanoma was above 100 µM throughout. Also, the TGI in the test with OVCAR-4 ovarian, with SK-MEL-2 melanoma, in the test with ACHN renal, in the test on MALME-3M melanoma, with NCI-H226 lung and with HOP-92 NSCLC was above 100 µM in each case. The TGI in the test with HL-60(TB) leukemia and in the test on CCRF-CEM leukemia was above 100 µM throughout.

Consider `COc1c(Cl)c2c(c(OC)c1OC)-c1ccc(OC)c(=O)c(Cl)c1C(NC(C)=O)CC2` (stereo not drawn), for which the TGI with HCT-15 colon is 2.38 µM; in the test on KM12 colon it was above 100 µM; in the test on 786-0 renal, above 33.8 µM; in the test on OVCAR-3 ovarian it was 0.378 µM; in the test with M14 melanoma, 4.61 µM; in the test on OVCAR-4 ovarian, above 100 µM. Also, the TGI is 7.87 µM in the test on SK-MEL-2 melanoma; above 100 µM with ACHN renal; above 100 µM in the test with MALME-3M melanoma; 1.59 µM in the test on NCI-H226 lung; 13.8 µM in the test on HOP-92 NSCLC; 2.77 µM in the test with HL-60(TB) leukemia. In addition, the TGI in the test on CCRF-CEM leukemia is above 33.8 µM.

With `CNC(=O)CN(CC(=O)NC)C(=O)NC`, the TGI in the test with OVCAR-8 ovarian, in the test with HCT-15 colon, in the test on KM12 colon, in the test with 786-0 renal, in the test on OVCAR-3 ovarian and in the test on M14 melanoma was above 100 µM in each case. Also, the TGI in the test with OVCAR-4 ovarian, with SK-MEL-2 melanoma, in the test on ACHN renal, in the test on MALME-3M melanoma, in the test with NCI-H226 lung and with HOP-92 NSCLC was above 100 µM throughout. Moreover, the TGI with HL-60(TB) leukemia and with CCRF-CEM leukemia was above 100 µM throughout.
